From patent publication EP0639380B1, “Cyclodextrin inclusion product of taxol, process for producing the same, and its use” (Ensuiko Sugar Refining Company, Limited, priority 1993, dated 1995)
Where two headings read alike, the source gives them in different places.

Tests used:
[1] = 70 min
Experimental: 098 g of hydroxyethyl-β-CD in which, of 21 hydroxyl groups contained in one β -CD molecule, an average of 1.6 groups are substituted through an ether bond with a hydroxyethyl group (hereinafter referred to as HE-β-CD) or 0.090 g of hydroxypropyl-β-CD in which, of 21 hydroxyl groups contained in one β -CD molecule, an average of 0.9 groups are substituted through an ether bond with a hydroxypropyl group (hereinafter referred to as HP-β -CD), and the volume of each solution was adjusted to 10 ml to prepare aqueous CD solutions of a concentration of 6 mM.
To the solutions were added 2 mg each of taxol, and the resulting mixtures were stirred at room temperature (20 to 25°C) at 5,000 r.p.m. As a control, 2 mg of taxol were added to 10 ml of water, and the resulting mixture was stirred at room temperature (20 to 25°C) at 5,000 r.p.m. After 70 minutes of stirring, the solutions were passed through a filter of a pore diameter of 0. 45µm, and the concentration of taxol contained in the filtrates was determined by highperformance liquid chromatography (HPLC).
Then, 20 mg of taxol were added to the aqueous DM-β-CD solution, 2 mgof taxol to the aqueous HP-β-CD solution, and 1 mg each of taxol to the other aqueous CD solutions, and the resulting mixtures were stirred at room temperature (20 to 25°C) at 5,000 r.p.m. As a control, 1 mg of taxol was added to 10 ml of water, and the resulting mixture was stirred at room temperature (20 to 25°C) at 5,000 r.p.m. After 70 minutes of stirring, the solutions were passed through a filter with a pore diameter of 0.45µm, and the concentration of taxol contained in the filtrates was determined.

[2] = assay type: physicochemical
Experimental: Into 70 ml of a mixture of methanol and water (volume ratio, 1:1), the same volume of a mixture of acetonitrile and water (volume ratio, 1: 1), the same volume of a mixture of acetone and water (volume ratio, 1: 1) and the same volume of mixture of tetrahydrofuran and water (volume ratio, 1:1) were added 5 mg each of taxol. To the resulting taxol solutions were added 500 mg each of DM-β-CD, and the resulting mixtures were stirred vigorously by a stirrer at a temperature of 25°C. After two hours of stirring, 100 ml each of water were added thereto, and the resulting solutions were freeze-dried, so as to obtain powders by completely removing the water and the organic solvents. Then, 8 mg each of the thus-obtained powders were dissolved into 1 ml of water while stirring, and the resulting solutions were passed through a filter with a pore size of 0. 45µm, and the concentration of DM-β-CD and of the taxol contained in the filtrates was determined by HPLC. […]
Two taxol solutions were prepared by dissolving 5 mg each of taxol into 100 ml each of mixtures of methanol and water (volume ratio, 1:1). To these solutions were added 50 mg of HE-β-CD or HP-β-CD, and the resulting mixtures were vigorously stirred using a stirrer at 25°C. […]

Solubility of Taxol [1] | Solubilty of Taxol [1] | Solubility of Taxol [2] | Compound
47.1 µ g/ml | 1236 µ g/ml | – | 2, 6-di-O-methyl- β -CD [DM-β-CD]
0.5 µ g/ml | 23.0 µ g/ml | – | 6-mono-O-maltosyl-β-CD [G2-β-CD]
0 µ g/ml | – | – | CC(=O)O[C@H]1C(=O)[C@@]2(C)[C@H]([C@H](OC(=O)c3ccccc3)[C@]3(O)C[C@H](OC(=O)[C@H](O)[C@@H](NC(=O)c4ccccc4)c4ccccc4)C(C)=C1C3(C)C)[C@]1(OC(C)=O)CO[C@@H]1C[C@@H]2O [CD not added (Control), taxol]
0.5 µ g/ml | 22.2 µ g/ml | 1.3 µ g/ml | hydroxyethyl-β-CD [HE-β-CD]
1.1 µ g/ml | 68.9 µ g/ml | 6.1 µ g/ml | hydroxypropyl-β-CD [HP-β-CD]
